Laboratory results as given in patent EP1285920A1, “C10 Ester sustituted taxanes as antitumor agents” (Florida State University Research Foundation, Inc., priority 2001, dated 2003).
Read-outs that look alike come from different tables or passages of the source.

Assays:
HCT116 = assay: In Vitro cytotoxicity measured by the cell colony formation assay; format: cell-based, human; details: Homo sapiens, HCT-116; read-out: IN VITRO ID 50 HCT116
Procedure, shortened: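 Four hundred cells per dish in McCoy's 5a medium with 10% FBS were allowed to attach for 5 h at 37 °C. They were then exposed to compound for 72 h at 37 °C, added as a 10× stock made fresh in medium. After HBSS rinsing and refeeding, colonies were counted after 7 days.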

MX-1 carcinoma = test system: MX-1 carcinoma
Procedure, shortened: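 Mice dosed with a single i.v. bolus (qd x 1) at each compound's MTD, formulated in 5% ethanol, 5% Cremophor, 90% isotonic saline. Study ended Day 60; complete response = tumor not palpable at study end.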

VM46 colon carcinoma = details: for Mean Score: tumor scoring system
Method: Dosing was initiated on Day 1. […] Taxotere was given i.v. at a dose of 70 mg/kg on a qd x 1 schedule.

DU145 prostate carcinoma = details: for Stable Disease / Complete Response / Partial Response / Survivors / Toxic Deaths: number of 5 mice
Description: Dosing was initiated on Day 1. […] Treatment groups are detailed in Table 5.

A2780 ovarian carcinoma = details: A2780, Taxol i.p. 15 mg/kg qd x 5 (Group 3)
Method: Dosing was initiated on Day 1. […] Taxotere was given i.v. on a qd x 1 schedule at a dose of 70 mg/kg. […] The study was terminated on Day 60. Treatment groups are detailed in Table 7.

[1] = MX-1, i.v. qd x 1, six mice per group
[2] = number of mice, Taxol 15 mg/kg i.p. qd x 5, 6 mice, Day 64
[3] = number of mice, i.v. qd x 1, mg/kg: Taxol 24, 0499 77, 0503 72.6, 0670 123.1, 0706 107.6, 0838 72.6, 0854 46.6, 0983 67.4, Taxotere 70, 6 mice/group, Day 64
[4] = i.v. qd x 1 at estimated MTD (Taxol 24 mg/kg split), Day 91

CC(=O)O[C@H]1C(=O)[C@@]2(C)[C@H]([C@H](OC(=O)c3ccccc3)[C@]3(O)C[C@H](OC(=O)[C@H](O)[C@@H](NC(=O)c4ccccc4)c4ccccc4)C(C)=C1C3(C)C)[C@]1(OC(C)=O)CO[C@@H]1C[C@@H]2O [Taxol, paclitaxel, reference compound]
IC50 (HCT116): 2.1 nM
MDS (MX-1 carcinoma; MX-1, Taxol 36 mg/kg i.v. qd x 1, one animal, calculated, tumor 2.0 g): 27.8 days
antitumor activity / tumor response (MX-1 carcinoma; MX-1, i.v. qd x 1, Day 60): moderate anti-tumor activity
Stable Disease (MX-1 carcinoma; [1]): One
Toxic Deaths (MX-1 carcinoma; [1]): four
Mean Score (MX-1 carcinoma; i.v. qd x 1 at MTD, 6 mice/group, Day 60, doses as in E17): 1.2 ± 0.8
tolerability (MX-1 carcinoma; mouse, in vivo, iv): not well tolerated
Stable Disease (MX-1 carcinoma; number of 6 mice, tumor did not reach 2.0 g by end of study, i.v. qd x 1 at MTD, Day 60, doses as in E17): 1
Complete Response (MX-1 carcinoma; number of 6 mice, tumor not palpable at end of study, i.v. qd x 1 at MTD, Day 60, doses as in E17): 0
Partial Response (MX-1 carcinoma; number of 6 mice, tumor smaller than on Day 1, i.v. qd x 1 at MTD, Day 60, doses as in E17): 0
Survivors (MX-1 carcinoma; number of 6 mice, i.v. qd x 1 at MTD, Day 60, doses as in E17): 1
Toxic Deaths (MX-1 carcinoma; number of 6 mice, i.v. qd x 1 at MTD, Day 60, mg/kg: Taxol 36 (split dose), 0503 72.6, 0536 49, 0663 159, 0670 123, 0687 159, 0706 108, 0908 159, 0947 76.9, 0951 72.6, 0983 67.4, 0999 49, 1003 49, 1011 108): 0
toxicity (VM46 colon carcinoma; VM46, Taxol i.p. 15 mg/kg qd x 5): excessively toxic
mortalities (VM46 colon carcinoma; VM46, Taxol i.p. 15 mg/kg qd x 5, six treated animals): three
partial responses (VM46 colon carcinoma; VM46, i.v. qd x 1 (compounds estimated MTD; Taxol 24 mg/kg split), six mice per group, ended Day 64): one
Stable Disease (VM46 colon carcinoma; VM46, i.v. qd x 1, six mice per group): one
MDS (n) (VM46 colon carcinoma; mean days of survival until neoplasm reached 1.5 g, Taxol 15 mg/kg i.p. qd x 5, 6 mice, terminated Day 64): 36.1 ± 12.2 (2) days
Toxic Deaths (VM46 colon carcinoma; number of mice, Taxol 15 mg/kg i.p. qd x 5, 6 mice): 3
Complete Response (VM46 colon carcinoma; [2]): 0
Partial Response (VM46 colon carcinoma; [2]): 1
Stable Disease (VM46 colon carcinoma; [2]): 0
Survivors (VM46 colon carcinoma; [2]): 1
Toxic Deaths (VM46 colon carcinoma; number of mice, i.v. qd x 1, mg/kg: Taxol 24, 0499 77, 0503 72.6, 0670 123.1, 0706 107.6, 0838 72.6, 0854 46.6, 0983 67.4, Taxotere 70, 6 mice/group): 0
Complete Response (VM46 colon carcinoma; [3]): 0
Partial Response (VM46 colon carcinoma; [3]): 1
Stable Disease (VM46 colon carcinoma; [3]): 1
Survivors (VM46 colon carcinoma; [3]): 2
Mean Score (VM46 colon carcinoma; Taxol 15 mg/kg i.p. qd x 5, 6 mice): 1.8 ± 1.3
Mean Score (VM46 colon carcinoma; i.v. qd x 1, mg/kg: Taxol 24, 0499 77, 0503 72.6, 0670 123.1, 0706 107.6, 0838 72.6, 0854 46.6, 0983 67.4, Taxotere 70, 6 mice/group): 3.8 ± 1.4
increase in survival compared to Group 1 controls (DU145 prostate carcinoma; DU145, Taxol 24 mg/kg i.v. qd x 1): 9%
toxicity (DU145 prostate carcinoma; DU145, Taxol i.p. 18 mg/kg qd x 5 (Group 3)): highly toxic
mice died of drug-related side effects (DU145 prostate carcinoma; DU145, Taxol i.p. 18 mg/kg qd x 5 (Group 3), five mice): five
MDS (DU145 prostate carcinoma; DU145, i.v. qd x 1 (compounds estimated MTD; Taxol 24 mg/kg split), days until tumor 1.5 g, ended Day 91): 37.4 days
toxic deaths / toxic lethalities (DU145 prostate carcinoma; DU145, i.v. qd x 1, five mice per group): One
Mean Score (DU145 prostate carcinoma; Taxol 18 mg/kg i.p. qd x 5, 5 mice): 0 ± 0
Mean Score (DU145 prostate carcinoma; i.v. qd x 1 at estimated MTD (Taxol 24 mg/kg split), 5 mice/group, Day 91): 2 ± 1
MDS (n) (DU145 prostate carcinoma; mean days of survival until tumor reached 1.5 g, i.v. qd x 1 at estimated MTD (Taxol 24 mg/kg as two split doses), 5 mice/group, study ended Day 91): 37.4 ± 8.9 (3) days
Stable Disease (DU145 prostate carcinoma; tumor did not reach 1.5 g by end of study, i.v. qd x 1 at estimated MTD (Taxol 24 mg/kg split), Day 91): 1
Complete Response (DU145 prostate carcinoma; Taxol 18 mg/kg i.p. qd x 5): 0
Partial Response (DU145 prostate carcinoma; Taxol 18 mg/kg i.p. qd x 5): 0
Stable Disease (DU145 prostate carcinoma; Taxol 18 mg/kg i.p. qd x 5): 0
Survivors (DU145 prostate carcinoma; Taxol 18 mg/kg i.p. qd x 5): 0
Toxic Deaths (DU145 prostate carcinoma; Taxol 18 mg/kg i.p. qd x 5): 5
Toxic Deaths (DU145 prostate carcinoma; i.v. qd x 1 at estimated MTD (Taxol 24 mg/kg as two split doses), Day 91): 1
Complete Response (DU145 prostate carcinoma; [4]): 0
Partial Response (DU145 prostate carcinoma; [4]): 0
Survivors (DU145 prostate carcinoma; [4]): 1
toxicity (A2780 ovarian carcinoma): highly toxic
mice succumbed to drug-related side effects (A2780 ovarian carcinoma; five mice): four
